Measured values: patent US12440833B2, “Sample containers adapted for acoustic ejections and sample preservation and methods thereof” (priority 2011, dated 2025)
Read-outs that look alike come from different tables or passages of the source.

Experiments:
TPCK trypsin [1] = molecular target: T1, TPCK trypsin (Bos taurus, UniProt P00760); assay type: biochemical; conditions: for average fluorescence of wells with trypsin exposed to tubes with immobilized ligand: 12.5 ng trypsin per tube, 120 minutes at room temperature
T1 construct: purchased Thermo Scientific Pierce 23266
T1 sequence (P00760 24-246): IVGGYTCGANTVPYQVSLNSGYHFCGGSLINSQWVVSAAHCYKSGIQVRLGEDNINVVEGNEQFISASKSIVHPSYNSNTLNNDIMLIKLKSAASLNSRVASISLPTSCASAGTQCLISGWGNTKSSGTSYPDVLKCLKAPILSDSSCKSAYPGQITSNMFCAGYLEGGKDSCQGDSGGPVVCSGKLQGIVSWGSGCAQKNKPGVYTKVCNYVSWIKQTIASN
Description: (§1) Protease activity and the inhibition thereof were measured with a Fluorescent Protease Assay Kit (Thermo Scientific Pierce, catalog number 23266). TRIS-buffered saline (TBS, 25 mM Tris, 0.15 M NaCl, pH 7.2) was reconstituted from dry solids in the kit with deionized water. Trypsin stock solution was freshly prepared by dissolving TPCK trypsin from kit with 1 mL deionized water to make a 50 mg/mL solution. Aliquots of 10 μL were stored at −60° C. Individual aliquots of the stock solution were diluted in 1.0 mL of TBS (0.5 mg/mL), and 10 μL of this solution was further diluted in 10 mL of TBS (0.5 μg/mL). This solution was serially diluted 1:1 with TBS to create a trypsin solution of 62.5 ng/mL. The trypsin solution was kept in an ice bath until use. 200 μL of the diluted trypsin (12.5 ng) was added to each prepared polypropylene tube. The solution was aspirated and re-dispensed three times in each tube to assure complete mixing and contact of the solution with the derivatized internal walls of the tubes. A new disposable tip was used for each transfer. After incubation at room temperature for 120 minutes, 100 μL of the trypsin solution from each tube was placed into individual wells of a 96-well, black, flat-bottomed plate (Greiner Bio-one, catalog number 655076, Monroe, N.C.). FTC-casein—(casein protein modified by the addition of fluorescein isothiocyanate, a part of the Fluorescent Protease Assay Kit) solution in TBS buffer was freshly prepared and 100 μL of this solution was added to each well and mixed via aspiration and dispense. The plate was incubated at room temperature for 95 minutes. The fluorescence of the samples in the 96-well plate was measured on a SpectraFluor Plus fluorescence spectrometer (Tecan, Mannedorf, Switzerland) 5 minutes after the solution was added and additionally after 10, 20, 40, 60 and 95 minutes. Increased fluorescence is indicative of trypsin-mediated digestion of the added FTC-casein solution via the decrease of FRET-based fluorescence quenching that exists in the intact protein.

TPCK trypsin [2] = molecular target: T1, TPCK trypsin; assay type: biochemical; conditions: for average fluorescence of wells with trypsin exposed to tubes with immobilized ligand: 12.5 ng trypsin per tube, 120 minutes at room temperature; remark: listed apart in the source
Description: as §1, with “solution. […]” for “solution.”, “FTC-casein—(casein protein modified by the addition of fluorescein isothiocyanate, a part of the Fluorescent Protease Assay Kit) solution in TBS buffer was freshly prepared and 100 μL of this solution was added to each well and mixed via aspiration and dispense.” left out, “The fluorescence of the samples in the 96-well plate was measured on a SpectraFluor Plus fluorescence spectrometer (Tecan, Mannedorf, Switzerland) 5 minutes after the solution was added and additionally after 10, 20, 40, 60 and 95 minutes.” left out

[3] = 0.1 mM TLCK in the well (not immobilized), after 20 minutes, background 5382 RFU
[4] = Example B, ligand immobilized on tube wall, background 5382 RFU
[5] = Example A, ligand immobilized on tube wall, background 5382 RFU

## Cc1ccc(S(=O)(=O)N[C@@H](CCCCN)C(=O)CCl)cc1.Cl [TLCK Ligand, N-alpha-tosyl-L-lysine chloromethyl ketone hydrochloride]
TPCK trypsin [1]; [3]
  fluorescence of wells that contained FTC-casein, trypsin and inhibitor: 6841 RFU
TPCK trypsin [1]; [4]
  average fluorescence of wells with trypsin exposed to tubes with immobilized ligand: 13386 RFU
TPCK trypsin [1]; Example B, ligand immobilized on tube wall, trypsin exposed 120 minutes at room temperature
  inhibition of trypsin activity: 48%
TPCK trypsin [2]; [3]
  fluorescence of wells that contained FTC-casein, trypsin and inhibitor: 6841 RFU
TPCK trypsin [2]; [5]
  average fluorescence of wells with trypsin exposed to tubes with immobilized ligand: 15521 RFU
TPCK trypsin [2]; Example A, ligand immobilized on tube wall, trypsin exposed 120 minutes at room temperature
  inhibition of trypsin activity: 35%

## NCCCO [AP Ligand, 3-amino-1-propanol]
TPCK trypsin [1]; [4]
  average fluorescence of wells with trypsin exposed to tubes with immobilized ligand: 20847 RFU
TPCK trypsin [2]; [5]
  average fluorescence of wells with trypsin exposed to tubes with immobilized ligand: 21289 RFU
